Patent EP0919233A1, “THERAPEUTIC AGENT FOR KIDNEY DISEASES” (KYOWA HAKKO KOGYO KABUSHIKI KAISHA, priority 1996, dated 1997)

How the values were obtained:
Assay type in all cases: in vivo
Masugi Nephritis = assay: Effect on Increase of Albumin Excretion in Masugi Nephritis; conditions: ddY-strain male mice, 1 mg/kg orally once a day from the previous immunization, 24 hr urine four weeks after second NT injection, mean ± standard error, n=11; control group 134 ± 9, normal group 85 ± 5
Method: Mouse nephrotoxin (hereinafter referred to as NT) was prepared according to the method of Ito, et al. [The Japanese Journal of Nephrology, 23, 25-36 (1981)]. That is, glomerular basement membrane (hereinafter referred to as GBM) was isolated from mouse kidney and digested with trypsin (Sigma). The digested GBM was subjected to ultracentrifugation under cooling, and the supernatant was dialyzed against distilled water, followed by lyophilization. The lyophile product was intracutaneously injected as an antigen into four foot pads of a rabbit together with Freund's complete adjuvant (Iatron; hereinafter referred to as FCA) once a week for 4 weeks for immunization. The whole blood was drawn from the immunized rabbit, and serum was separated and inactivated at 56°C for 30 minutes to prepare NT.
In this test, ddY-strain male mice weighing 29-36 g were used. For previous immunization, 0.25 ml of an FCA emulsion containing 0.25 mg of rabbit immunoglobulin-globulin (IgG, Sigma) was intraperitoneally injected into mice. Nephritis was induced by intravenous injection of 0.075 ml of NT through the tail vein 4 and 11 days after the previous immunization. […] The supernatant was analyzed for urinary albumin content using an autoanalyzer (Olympus). […]
The results are shown in Table 5 as the means ± standard error of each group consisting of 11 mice. Statistical significance was evaluated by Student's t-test.

dd-strain male mice = assay: Acute Toxicity Test (minimum lethal dose); conditions: three mice per group, mortality observed seven days after administration
Method: A test compound was orally or intraperitoneally administered to groups of dd-strain male mice weighing 20 ± 1 g, each group consisting of three mice. […] The MLD was >1000 mg/kg for oral administration of Compound 10 and was >100 mg/kg for intraperitoneal administration of Compound 10.

Diabetic Nephropathy = assay: Effect on Increase of Albumin Excretion in Diabetic Nephropathy (streptozotocin-induced); conditions: STZ-diabetic ddY-strain male mice, 24 hr urine twelve weeks after STZ, mean ± standard error, control group 333 ± 30, normal group 80 ± 3
Method: In this test, ddY-strain male mice weighing 25-28 g were used. Diabetes was induced according to the method of Tsuchida, et al. [Jin To Toseki (Kidney and Dialysis), 31, 363-366 (1991)]. That is, streptozotocin (5 mg/ml, Sigma; hereinafter referred to as STZ) dissolved in 0.05 M citrate buffer was intravenously injected into mice through the tail vein at a dose of 10 ml/kg. On the fourth day after the STZ administration, 30 µl of blood was collected from the tail vein of the mice and the blood glucose was determined using Glutestsensor (Sanwa Kagaku). The animals were divided into three groups based on the blood glucose level. Twelve weeks after the STZ administration, each mouse was put into a metabolic cage and received oral administration of 0.5 ml/10 g of distilled water twice at an interval of 12 hours. Urine was collected for 24 hours, and after measurement of the volume, the urine was centrifuged under cooling (3000 rpm, 4°C) for 5 minutes. The supernatant was analyzed for urinary albumin content using an autoanalyzer (Olympus). A test compound was orally administered once a day for 11 weeks, starting on the fifth day after the STZ administration. […] Statistical significance was evaluated by Aspin-Welch's test for the difference between the control group and the normal group and by Steel's test for the difference between the control group and the test compound-administered group.

CCOc1cc2nc(N3CCOCC3)nc(N3CCC(n4c(=O)c5cc(C)ccc5n(C)c4=O)CC3)c2cc1OCC.Cl [Compound 10, 3-[1-(6,7-Diethoxy-2-morpholino-4-quinazolinyl)-4-piperidinyl]-1,2,3,4-tetrahydro-1,6-dimethyl-2,4-dioxoquinazoline hydrochloride] was tested, and the “Urinary Albumin Content” value (Masugi Nephritis) was 96 ± 7 mg/kg/24 hr, the “minimum lethal dose (MLD)” value (dd-strain male mice; intraperitoneal administration) was > 100 mg/kg and the “minimum lethal dose (MLD)” value (dd-strain male mice; oral administration) was > 1000 mg/kg. For the same molecule, the “Urinary Albumin Content” value (Diabetic Nephropathy; 1 mg/kg orally once a day for 11 weeks) was 244 ± 16 mg/kg/24 hr and the “Urinary Albumin Content” value (Diabetic Nephropathy; 10 mg/kg orally once a day for 11 weeks) was 200 ± 13 mg/kg/24 hr.
